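Growth conditions: 96-well plates. Treatment: test compound, 48 hours, 5 concentrations. Analysis: linear interpolation between bracketing concentrations; unreached endpoints set to highest concentration. At the GI50, growth is halved. The concentration for full growth arrest is given as TGI.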
Assays:
Assay in all cases: inhibition of tumour cell growth, NCI panel, 48 h
786-0 renal = test system: 786-0 renal
A498 renal = test system: A498 renal
A549 NSCLC = test system: A549 NSCLC
ACHN renal = test system: ACHN renal
BT-549 breast = test system: BT-549 breast
CAKI-1 renal = test system: CAKI-1 renal
CCRF-CEM leukemia = test system: CCRF-CEM leukemia
COLO 205 colon = test system: COLO 205 colon
DU-145 prostate = test system: DU-145 prostate
EKVX NSCLC = test system: EKVX NSCLC
HCC-2998 colon = test system: HCC-2998 colon
HCT-116 colon = test system: HCT-116 colon
HCT-15 colon = test system: HCT-15 colon
HL-60(TB) leukemia = test system: HL-60(TB) leukemia
HOP-62 NSCLC = test system: HOP-62 NSCLC
HOP-92 NSCLC = test system: HOP-92 NSCLC
HS 578T breast = test system: HS 578T breast
HT29 colon = test system: HT29 colon
IGROV1 ovarian = test system: IGROV1 ovarian
K-562 leukemia = test system: K-562 leukemia
KM12 colon = test system: KM12 colon
LOX IMVI melanoma = test system: LOX IMVI melanoma
M14 melanoma = test system: M14 melanoma
MALME-3M melanoma = test system: MALME-3M melanoma
MCF7 breast = test system: MCF7 breast
MDA-MB-231 breast = test system: MDA-MB-231 breast
MDA-MB-435 = test system: MDA-MB-435
MDA-MB-468 breast = test system: MDA-MB-468 breast
MOLT-4 leukemia = test system: MOLT-4 leukemia
NCI-H226 lung = test system: NCI-H226 lung
NCI-H23 lung = test system: NCI-H23 lung
NCI-H460 lung = test system: NCI-H460 lung
NCI-H522 lung = test system: NCI-H522 lung
NCI/ADR-RES ovarian = test system: NCI/ADR-RES ovarian
OVCAR-3 ovarian = test system: OVCAR-3 ovarian
OVCAR-4 ovarian = test system: OVCAR-4 ovarian
OVCAR-5 ovarian = test system: OVCAR-5 ovarian
OVCAR-8 ovarian = test system: OVCAR-8 ovarian
PC-3 prostate = test system: PC-3 prostate
RPMI-8226 leukemia = test system: RPMI-8226 leukemia
SF-268 CNS = test system: SF-268 CNS
SF-295 CNS = test system: SF-295 CNS
SF-539 CNS = test system: SF-539 CNS
SK-MEL-2 melanoma = test system: SK-MEL-2 melanoma
SK-MEL-28 melanoma = test system: SK-MEL-28 melanoma
SK-MEL-5 melanoma = test system: SK-MEL-5 melanoma
SK-OV-3 ovarian = test system: SK-OV-3 ovarian
SN12C renal = test system: SN12C renal
SNB-19 CNS = test system: SNB-19 CNS
SNB-75 CNS = test system: SNB-75 CNS
SR leukemia = test system: SR leukemia
SW-620 colon = test system: SW-620 colon
T-47D breast = test system: T-47D breast
TK-10 renal = test system: TK-10 renal
U251 CNS = test system: U251 CNS
UACC-257 melanoma = test system: UACC-257 melanoma
UACC-62 melanoma = test system: UACC-62 melanoma
UO-31 renal = test system: UO-31 renal

## COc1ccc(C(=O)/C=C/c2ccc(OCc3ccc(F)cc3)c(OC)c2)cc1OC
786-0 renal
  GI50: 30 µM
  TGI: > 100 µM
A498 renal
  GI50: 26.1 µM
  TGI: > 100 µM
A549 NSCLC
  GI50: 4.81 µM
  TGI: > 100 µM
ACHN renal
  GI50: 6.46 µM
  TGI: > 100 µM
BT-549 breast
  GI50: 3.62 µM
  TGI: 60 µM
CAKI-1 renal
  GI50: 6.01 µM
  TGI: > 100 µM
CCRF-CEM leukemia
  GI50: 3.49 µM
  TGI: > 100 µM
COLO 205 colon
  GI50: 7.93 µM
  TGI: > 100 µM
DU-145 prostate
  GI50: 5.64 µM
  TGI: > 100 µM
EKVX NSCLC
  GI50: 5.19 µM
  TGI: > 100 µM
HCC-2998 colon
  GI50: 3000 nM
  TGI: 16.4 µM
HCT-116 colon
  GI50: 3.57 µM
  TGI: > 100 µM
HCT-15 colon
  GI50: 3.09 µM
  TGI: > 100 µM
HL-60(TB) leukemia
  GI50: 10.4 µM
  TGI: > 100 µM
HOP-62 NSCLC
  GI50: 3.55 µM
  TGI: > 100 µM
HOP-92 NSCLC
  GI50: 7.53 µM
  TGI: > 100 µM
HS 578T breast
  GI50: 23 µM
  TGI: > 100 µM
HT29 colon
  GI50: 3.02 µM
  TGI: > 100 µM
IGROV1 ovarian
  GI50: 3.88 µM
  TGI: > 100 µM
K-562 leukemia
  GI50: 3.72 µM
  TGI: > 100 µM
KM12 colon
  GI50: 4.31 µM
  TGI: > 100 µM
LOX IMVI melanoma
  GI50: 3.06 µM
  TGI: > 100 µM
M14 melanoma
  GI50: 22.6 µM
  TGI: > 100 µM
MALME-3M melanoma
  GI50: 27.5 µM
  TGI: > 100 µM
MCF7 breast
  GI50: 3.04 µM
  TGI: > 100 µM
MDA-MB-231 breast
  GI50: 3.95 µM
  TGI: > 100 µM
MDA-MB-435
  GI50: 5.06 µM
  TGI: 60.9 µM
MDA-MB-468 breast
  GI50: 2740 nM
  TGI: > 100 µM
MOLT-4 leukemia
  GI50: 4.07 µM
  TGI: > 100 µM
NCI-H226 lung
  GI50: 4.7 µM
  TGI: > 100 µM
NCI-H23 lung
  GI50: 4.44 µM
  TGI: 79.3 µM
NCI-H460 lung
  GI50: 5.88 µM
  TGI: > 100 µM
NCI-H522 lung
  GI50: 3.39 µM
  TGI: 71.6 µM
NCI/ADR-RES ovarian
  GI50: 2860 nM
  TGI: 16.2 µM
OVCAR-3 ovarian
  GI50: 4.64 µM
  TGI: > 100 µM
OVCAR-4 ovarian
  GI50: 3.94 µM
  TGI: > 100 µM
OVCAR-5 ovarian
  GI50: 3.32 µM
  TGI: > 100 µM
OVCAR-8 ovarian
  GI50: 3.46 µM
  TGI: > 100 µM
PC-3 prostate
  GI50: 6.1 µM
  TGI: > 100 µM
RPMI-8226 leukemia
  GI50: 2700 nM
  TGI: > 100 µM
SF-268 CNS
  GI50: 12 µM
  TGI: > 100 µM
SF-295 CNS
  GI50: 3.99 µM
  TGI: > 100 µM
SF-539 CNS
  GI50: 3.36 µM
  TGI: 16.7 µM
SK-MEL-2 melanoma
  GI50: 13.4 µM
  TGI: 47.6 µM
SK-MEL-28 melanoma
  GI50: 29.3 µM
  TGI: > 100 µM
SK-MEL-5 melanoma
  GI50: 10.4 µM
  TGI: 29 µM
SK-OV-3 ovarian
  GI50: 34.8 µM
  TGI: > 100 µM
SN12C renal
  GI50: 2950 nM
  TGI: > 100 µM
SNB-19 CNS
  GI50: 4.11 µM
  TGI: > 100 µM
SNB-75 CNS
  GI50: 17.3 µM
  TGI: 99.2 µM
SR leukemia
  GI50: 3.18 µM
  TGI: > 100 µM
SW-620 colon
  GI50: 3.8 µM
  TGI: > 100 µM
T-47D breast
  GI50: 5.34 µM
  TGI: > 100 µM
TK-10 renal
  GI50: 14.3 µM
  TGI: > 100 µM
U251 CNS
  GI50: 3.79 µM
  TGI: > 100 µM
UACC-257 melanoma
  GI50: 23.2 µM
  TGI: > 100 µM
UACC-62 melanoma
  GI50: 4.41 µM
  TGI: > 100 µM
UO-31 renal
  GI50: 3.7 µM
  TGI: > 100 µM
